Laboratory results: US11534457B2, “Use of dextran sulfate” (priority 2017, dated 2022)

Tests used:
[1] = system: Human umbilical vein endothelial cells (HUVECs); test: Gene expression array and pathway analysis, HUVECs; type: cell-based
Description: For each cell line, n=8×25 cm^2 culture flasks were set up. Two flasks were harvested for each cell type on the day of treatment (24 hours after seeding). This represents the Day0 time point. From the remaining flasks, three flasks were treated with Control Medium and three were treated with Culture Medium (CM) containing LMW-DS to give a final concentration of 0.01 mg/ml. Cells from the treated flasks were collected after 48 hours. Therefore the collected data represent (a) untreated cells (Day0 Controls and Day2 Controls) and (b) cells treated with LMW-DS for 48 hours (Day2 LMW-DS treated).
25 cm^2 flasks were coated by adding 2 ml per flask of a solution of 50 μg/ml poly-d-lysine in Hank's balanced salt solution (HBSS) and incubating overnight at 37° C. in the dark. Flasks were washed with cell culture water and air-dried for 30 min in the dark. Flasks were coated by adding 1 ml per flask of a solution of 25 μg/ml laminin in phosphate-buffered saline (PBS) and incubating for 2 hour at 37° C. in the dark. The laminin flasks were washed with PBS three times before plating cells.
Medium 200+Large Vessel Endothelial Supplement (M200+LVES) additive (1:50) was prepared and pre-warmed to 37° C. Cells were thawed in a 37° C. water bath for no longer than 2 min and gently transferred into a 50 ml tube containing 20 ml Dulbecco's Modified Eagle Medium, Nutrient Mixture F-12 (DMEM-F12). The cell suspension was mixed by inverting the tube carefully twice. Cells were spun at 400×g for 10 minutes. Supernatant removed and cells were resuspended in 10 ml of culture media (M200+LVES additive).
Cells were counted with the Cellometer. 1,000,000 cells/flask were seeded in 25 cm^2 flasks (n=8) and medium was topped up to a total of 5 ml per flask. Cells were incubated at 37° C. with 5% CO2. Cells were allowed to settle for 24 hours before LMW-DS treatment.
LMW-DS was provided at a stock concentration of 20 mg/ml and was kept in a temperature monitored refrigerator at 4° C. A fresh […]LMW-DS stock (1.0 mg/ml) was prepared in sterile DMEM-F12. The concentrated drug stock was sterile filtered and added to the respective culture media (19.6 ml CM and 0.4 ml LMW-DS stock solution). The Control was made using 19.6 ml CM and 0.4 ml of DMEM-F12. LMW-DS and CM were added to the respective flasks (5 ml each) to reach the 0.01 mg/ml concentration of LMW-DS in each dish with a total of 10 ml CM each.
CM was aspirated into a clean and labelled 15 ml Falcon tube. The flasks (without culture medium) were placed into the −80° C. freezer for 30 minutes. The CM in the Falcon tubes were spun at 3000×g for 5 minutes. Supernatant was removed and the small pellet was re-suspended in 2.5 ml Trizol:Water (4:1) solution at room temperature (RT, […]).
Two aliquots of 1 ml lysate was removed from each sample and 200 μl of chloroform was added to each (0.2 ml of chloroform per 1 ml of TRIzol Reagent used during the cell lysis step) and the tube was shaken vigorously. Samples were stored at RT for 2-3 minutes and subsequently centrifuged at 12,000×g for 15 minutes at 4° C.
The expression data were downloaded into separate files for each cell line. The ‘Background corrected’ expression is the data from the “gProcessedSignal” of the arrays that is the result of the background signal extracted from the actual signal of the relevant probe. This is the most often used variable in array analysis. The background corrected signal was log 2 transformed for all samples for statistical analysis. To reduce the false discovery rate in the samples, the signals that were below ‘expression level’ were removed. The ‘below expression’ level was set at 5 for the log 2 transformed expression values.
Based on the expression pattern of the Control probes on each array it was decided to carry out Median Centering for all arrays before analysis to reduce the variability of the results. […]

human Schwann cells = test: PI staining (DNA content, cell cycle, cell numbers, apoptotic fraction), Acumen cytometry; type: cell-based; conditions: 0.01 and 0.1 mg/ml
Description: The study aims were to evaluate the effect of LMW-DS on cell survival and expression of differentiation proteins in three cell types, cerebral cortical neurons, motor neurons and Schwann cells, using two concentrations 0.01 and 0.1 mg/ml of LMW-DS.
Neurons were cultured as 40,000 cells per well and Schwann cells 3,000 cells per. Cells were treated after 24 hours. The number of cells per well depended on the growth phenotype, proliferative capacity, etc.
Schwann cells growth medium was prepared by adding 10% of fetal bovine serum (FBS, PAA) to high-glucose DMEM and pre-warmed to 37° C. Cells were thawed in a 37° C. water bath for no longer than 2 min. […] Pellet was resuspended in 5 ml of medium and cells were counted with the Cellometer. […]
LMW-DS was prepared in the culture media of choice for each cell line and added to the respective wells in the doses 0.01 and 0.1 mg/ml. For cell survival assays cells were analyzed after 24 and 48 hours in eight identical wells/dose/time point. Differentiation and protein expression assay was analyzed after 48 hours, also in octuplicates. […]
The Acumen cytometer allows the direct cytometric analysis of attached cells without prior detachment. […] The protein content of the cells can also be directly measured and expressed as either ‘total protein content’ or ‘mean protein content’.

## low molecular weight dextran sulfate [LMW-DS]
[1]; 0.01 mg/ml, 48 h
  aggregate effect on adhesion and angiogenesis (1 molecule, ADAM11): adhesion would not be affected but angiogenesis would be activated
  differential regulation of the 197 genes regulating cell attachment: none are differentially regulated
  modulation of the effects of oxidative stress on mitochondria: no significant modulation
  number of genes differentially expressed, D0 control vs D2 LMW-DS treated: 1779 genes
  number of genes differentially expressed, D2 control vs D2 LMW-DS treated: 76 genes
  number of genes: abolished nutrient effect / no effect: 67
  number of genes: abolished nutrient effect / significant downregulation: 4
  number of genes: abolished nutrient effect / significant upregulation: 11
  number of genes: abolished nutrient effect / total: 82
  number of genes: enhanced response to nutrients / significant downregulation: 120
  number of genes: enhanced response to nutrients / significant upregulation: 229
  number of genes: enhanced response to nutrients / total: 349
  number of genes: not different from control / significant downregulation: 167
  number of genes: not different from control / significant upregulation: 1326
  number of genes: not different from control / total: 1493
  number of genes: total / no effect: 67
  number of genes: total / significant downregulation: 291
  number of genes: total / significant upregulation: 1566
  number of genes: total / total: 1924
[1]; D2 LMW-DS treatment
  upstream regulator HGF: activation z-score: 3.194
  upstream regulator HGF: predicted activation state relative D2 control: Activated relative to control
  upstream regulator TGFβ1: activation z-score: 1.429
  upstream regulator TGFβ1: predicted activation state relative D2 control: Activated relative to control
  upstream regulator VEGF: activation z-score: 3.432
  upstream regulator VEGF: predicted activation state relative D2 control: Activated relative to control
Human Schwann cells
  fraction of apoptotic cells: reduced
  number of cells in the G2/M phase (PI content): appeared to increase the number of cells in the G2/M phase
